In ChEMBL document CHEMBL3885881, “DrugMatrix”:

Species: Rattus norvegicus
Experiment: DrugMatrix - Regimen: Daily Repeat
Format: toxicity, organism-based, Sprague-Dawley
Design: regimen Daily Repeat, gender Male, age 6-8 weeks
Details: in vivo, po, 0 mg/kg, route oral GAVAGE, dose level Control, […]; for ABSOLUTE BASOPHIL / ABSOLUTE EOSINOPHIL / ABSOLUTE LYMPHOCYTE / ABSOLUTE MONOCYTE / ABSOLUTE SEGMENTED NEUTROPHIL / BASOPHIL / EOSINOPHIL / ERYTHROCYTE COUNT / HEMATOCRIT / HEMOGLOBIN / LEUKOCYTE COUNT / LYMPHOCYTE / MEAN CORPUSCULAR HEMOGLOBIN / MEAN CORPUSCULAR HEMOGLOBIN CONCENTRATION / MEAN CORPUSCULAR VOLUME / MONOCYTE / NEUTROPHIL / NUCLEATED RED BLOOD CELLS / PLATELET COUNT: tissue Blood; for ALANINE AMINOTRANSFERASE / ALBUMIN / ALKALINE PHOSPHATASE / ASPARTATE AMINOTRANSFERASE / BLOOD UREA NITROGEN / CARBON DIOXIDE / CHLORIDE / CHOLESTEROL / CREATINE PHOSPHOKINASE / CREATININE / GLUCOSE / LACTATE DEHYDROGENASE / LIPASE / PHOSPHORUS / POTASSIUM / SODIUM / TOTAL BILIRUBIN / TOTAL PROTEIN / URIC ACID: tissue Plasma

## CC(C)(Oc1ccc(CCNC(=O)c2ccc(Cl)cc2)cc1)C(=O)O [BEZAFIBRATE]
72 h, time 3 day
  ABSOLUTE BASOPHIL: 0 CELLS/uL
  ABSOLUTE EOSINOPHIL: 37.33 CELLS/uL
  ABSOLUTE LYMPHOCYTE: 6295.33 CELLS/uL
  ABSOLUTE MONOCYTE: 122.17 CELLS/uL
  ABSOLUTE SEGMENTED NEUTROPHIL: 861.83 CELLS/uL
  BASOPHIL: 0%
  EOSINOPHIL: 0.5%
  ERYTHROCYTE COUNT: 5.2 x10E6/uL
  HEMATOCRIT: 32.58%
  HEMOGLOBIN: 12.95 G/DL
  LEUKOCYTE COUNT: 7.32 x10E3/uL
  LYMPHOCYTE: 86%
  MEAN CORPUSCULAR HEMOGLOBIN: 24.93 pg
  MEAN CORPUSCULAR HEMOGLOBIN CONCENTRATION: 39.77 G/DL
  MEAN CORPUSCULAR VOLUME: 62.65 fL
  MONOCYTE: 1.67%
  NEUTROPHIL: 11.83%
  NUCLEATED RED BLOOD CELLS: 0 /100WBC
  PLATELET COUNT: 1029 x10E3/uL
  ALANINE AMINOTRANSFERASE: 63.67 u/L
  ALBUMIN: 4.12 G/DL
  ALKALINE PHOSPHATASE: 329.83 u/L
  ASPARTATE AMINOTRANSFERASE: 77.67 u/L
  BLOOD UREA NITROGEN: 18 mg/dL
  CARBON DIOXIDE: 29.67 mmol/L
  CHLORIDE: 102.67 MEQ/L
  CHOLESTEROL: 64.5 mg/dL
  CREATINE PHOSPHOKINASE: 178.67 u/L
  CREATININE: 0.18 mg/dL
  GLUCOSE: 163.83 mg/dL
  LACTATE DEHYDROGENASE: 75.83 u/L
  LIPASE: 10 u/L
  PHOSPHORUS: 8.28 mg/dL
  POTASSIUM: 4.79 MEQ/L
  SODIUM: 142.22 MEQ/L
  TOTAL BILIRUBIN: 0.22 mg/dL
  TOTAL PROTEIN: 5.78 G/DL
  URIC ACID: 0.87 mg/dL
120 h, time 5 day
  BASOPHIL: 0.32%
  EOSINOPHIL: 0.58%
  ERYTHROCYTE COUNT: 7.26 x10E6/uL
  HEMATOCRIT: 46.94%
  HEMOGLOBIN: 14.9 G/DL
  LEUKOCYTE COUNT: 8.69 x10E3/uL
  LYMPHOCYTE: 81.52%
  MEAN CORPUSCULAR HEMOGLOBIN: 20.58 pg
  MEAN CORPUSCULAR HEMOGLOBIN CONCENTRATION: 31.8 G/DL
  MEAN CORPUSCULAR VOLUME: 64.68 fL
  MONOCYTE: 2.16%
  NEUTROPHIL: 13.88%
  PLATELET COUNT: 1531.2 x10E3/uL
  ALANINE AMINOTRANSFERASE: 33.2 u/L
  ALBUMIN: 3.74 G/DL
  ALKALINE PHOSPHATASE: 318 u/L
  ASPARTATE AMINOTRANSFERASE: 78.6 u/L
  BLOOD UREA NITROGEN: 6 mg/dL
  CHLORIDE: 108.4 MEQ/L
  CHOLESTEROL: 63 mg/dL
  CREATINE PHOSPHOKINASE: 251 u/L
  CREATININE: 0.18 mg/dL
  GLUCOSE: 125.6 mg/dL
  PHOSPHORUS: 12.06 mg/dL
  POTASSIUM: 5.92 MEQ/L
  SODIUM: 146.8 MEQ/L
  TOTAL BILIRUBIN: 0.16 mg/dL
  TOTAL PROTEIN: 6.06 G/DL
Time 7 day
  ABSOLUTE BASOPHIL: 0 CELLS/uL
  ABSOLUTE EOSINOPHIL: 19 CELLS/uL
  ABSOLUTE LYMPHOCYTE: 7803.5 CELLS/uL
  ABSOLUTE MONOCYTE: 117.83 CELLS/uL
  ABSOLUTE SEGMENTED NEUTROPHIL: 1093 CELLS/uL
  BASOPHIL: 0%
  EOSINOPHIL: 0.17%
  ERYTHROCYTE COUNT: 5.84 x10E6/uL
  HEMATOCRIT: 35.75%
  HEMOGLOBIN: 13.87 G/DL
  LEUKOCYTE COUNT: 9.03 x10E3/uL
  LYMPHOCYTE: 87.17%
  MEAN CORPUSCULAR HEMOGLOBIN: 23.78 pg
  MEAN CORPUSCULAR HEMOGLOBIN CONCENTRATION: 38.8 G/DL
  MEAN CORPUSCULAR VOLUME: 61.25 fL
  MONOCYTE: 1.17%
  NEUTROPHIL: 11.5%
  NUCLEATED RED BLOOD CELLS: 0 /100WBC
  PLATELET COUNT: 1098.67 x10E3/uL
  ALANINE AMINOTRANSFERASE: 66 u/L
  ALBUMIN: 4.3 G/DL
  ALKALINE PHOSPHATASE: 291.83 u/L
  ASPARTATE AMINOTRANSFERASE: 80.5 u/L
  BLOOD UREA NITROGEN: 15.67 mg/dL
  CARBON DIOXIDE: 30 mmol/L
  CHLORIDE: 101.67 MEQ/L
  CHOLESTEROL: 69.67 mg/dL
  CREATINE PHOSPHOKINASE: 363.33 u/L
  CREATININE: 0.25 mg/dL
  GLUCOSE: 146.5 mg/dL
  LACTATE DEHYDROGENASE: 219.67 u/L
  LIPASE: 11.33 u/L
  PHOSPHORUS: 10.08 mg/dL
  POTASSIUM: 5.22 MEQ/L
  SODIUM: 144.67 MEQ/L
  TOTAL BILIRUBIN: 0.12 mg/dL
  TOTAL PROTEIN: 6.33 G/DL
  URIC ACID: 0.75 mg/dL
Time 28 day
  BASOPHIL: 0.42%
  EOSINOPHIL: 0.58%
  ERYTHROCYTE COUNT: 8.06 x10E6/uL
  HEMATOCRIT: 48.44%
  HEMOGLOBIN: 16.34 G/DL
  LEUKOCYTE COUNT: 13.04 x10E3/uL
  LYMPHOCYTE: 85.12%
  MEAN CORPUSCULAR HEMOGLOBIN: 20.26 pg
  MEAN CORPUSCULAR HEMOGLOBIN CONCENTRATION: 33.74 G/DL
  MEAN CORPUSCULAR VOLUME: 60.1 fL
  MONOCYTE: 1.44%
  NEUTROPHIL: 11.28%
  PLATELET COUNT: 1226 x10E3/uL
  ALANINE AMINOTRANSFERASE: 28.6 u/L
  ALBUMIN: 3.94 G/DL
  ALKALINE PHOSPHATASE: 254.6 u/L
  ASPARTATE AMINOTRANSFERASE: 67.8 u/L
  BLOOD UREA NITROGEN: 10.4 mg/dL
  CHLORIDE: 104.6 MEQ/L
  CHOLESTEROL: 57.6 mg/dL
  CREATINE PHOSPHOKINASE: 224.8 u/L
  CREATININE: 0.4 mg/dL
  GLUCOSE: 140.6 mg/dL
  PHOSPHORUS: 10.66 mg/dL
  POTASSIUM: 6.58 MEQ/L
  SODIUM: 148.6 MEQ/L
  TOTAL BILIRUBIN: 0.24 mg/dL
  TOTAL PROTEIN: 6.64 G/DL
